Assay results taken from ChEMBL document CHEMBL1201862, “PubChem BioAssay data set” (2004).
Calls of active or inactive are those of the source.

How the values were obtained:
[1] = biological target: Galanin receptor type 3 (Homo sapiens, UniProt O60755); test: Fluorescence-based cell-based primary high throughput dose response assay to identify antagonists of the Galanin Receptor 3 (GalR3).; assay type: functional
[2] = cells; assay type: functional, cell-based; settings: HEK-CNG
[3] = system: CHO; test: cytotoxicity in TLR9-MyD88 CHO cells, dose response, cytotoxicity control for TLR9-MyD88 binding inhibitor project, cell-based, luminescence (AID 588339); assay type: functional, hamster; settings: Cricetulus griseus;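 also: CHO cells stably coexpressing TLR9 and MyD88 fusions from primary screen; compound exposure lasted 48 hours before viability readout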
[4] = biological target: Beta Lactamase (Pseudomonas aeruginosa, UniProt Q932Y6); test: beta-lactamase reporter inhibitor potency, dose response, artefact control for TLR9-MyD88 binding inhibitor project, BLA reporter cells, FRET fluorescence (AID 588341); assay type: cell-based;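 also: cell based assay in CHO-K1 cells stably expressing beta-lactamase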
[5] = biological target: T1, Sentrin-specific protease 8 (Homo sapiens, UniProt Q96LD8); assay type: functional
T1 sequence (Q96LD8 whole entry): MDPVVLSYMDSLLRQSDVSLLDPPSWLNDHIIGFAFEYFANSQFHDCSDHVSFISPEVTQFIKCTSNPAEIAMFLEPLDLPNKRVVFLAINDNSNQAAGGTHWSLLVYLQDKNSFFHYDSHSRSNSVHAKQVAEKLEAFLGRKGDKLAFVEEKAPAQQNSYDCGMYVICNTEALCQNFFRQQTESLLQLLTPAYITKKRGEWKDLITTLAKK

[6] = biological target: T1, Sentrin-specific protease 8; assay type: functional; remark: listed apart in the source
[7] = biological target: T2, Caspase-6 (Homo sapiens, UniProt P55212); test: human caspase-6 inhibitors, dose response, biochemical, VEID-R110 fluorescence, cherry-pick (AID 720632)
T2 sequence (P55212 whole entry): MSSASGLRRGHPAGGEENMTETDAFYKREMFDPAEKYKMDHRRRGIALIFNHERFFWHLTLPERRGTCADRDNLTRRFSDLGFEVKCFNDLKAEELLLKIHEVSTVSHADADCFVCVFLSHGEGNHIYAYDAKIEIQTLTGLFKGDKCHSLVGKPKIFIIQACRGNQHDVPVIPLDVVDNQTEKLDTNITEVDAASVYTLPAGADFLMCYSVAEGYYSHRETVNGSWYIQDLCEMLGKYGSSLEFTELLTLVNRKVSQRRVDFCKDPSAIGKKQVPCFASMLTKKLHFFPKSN

[8] = biological target: T3, Apoptotic protease-activating factor 1 (Homo sapiens, UniProt O14727); assay type: functional
T3 sequence (O14727 whole entry): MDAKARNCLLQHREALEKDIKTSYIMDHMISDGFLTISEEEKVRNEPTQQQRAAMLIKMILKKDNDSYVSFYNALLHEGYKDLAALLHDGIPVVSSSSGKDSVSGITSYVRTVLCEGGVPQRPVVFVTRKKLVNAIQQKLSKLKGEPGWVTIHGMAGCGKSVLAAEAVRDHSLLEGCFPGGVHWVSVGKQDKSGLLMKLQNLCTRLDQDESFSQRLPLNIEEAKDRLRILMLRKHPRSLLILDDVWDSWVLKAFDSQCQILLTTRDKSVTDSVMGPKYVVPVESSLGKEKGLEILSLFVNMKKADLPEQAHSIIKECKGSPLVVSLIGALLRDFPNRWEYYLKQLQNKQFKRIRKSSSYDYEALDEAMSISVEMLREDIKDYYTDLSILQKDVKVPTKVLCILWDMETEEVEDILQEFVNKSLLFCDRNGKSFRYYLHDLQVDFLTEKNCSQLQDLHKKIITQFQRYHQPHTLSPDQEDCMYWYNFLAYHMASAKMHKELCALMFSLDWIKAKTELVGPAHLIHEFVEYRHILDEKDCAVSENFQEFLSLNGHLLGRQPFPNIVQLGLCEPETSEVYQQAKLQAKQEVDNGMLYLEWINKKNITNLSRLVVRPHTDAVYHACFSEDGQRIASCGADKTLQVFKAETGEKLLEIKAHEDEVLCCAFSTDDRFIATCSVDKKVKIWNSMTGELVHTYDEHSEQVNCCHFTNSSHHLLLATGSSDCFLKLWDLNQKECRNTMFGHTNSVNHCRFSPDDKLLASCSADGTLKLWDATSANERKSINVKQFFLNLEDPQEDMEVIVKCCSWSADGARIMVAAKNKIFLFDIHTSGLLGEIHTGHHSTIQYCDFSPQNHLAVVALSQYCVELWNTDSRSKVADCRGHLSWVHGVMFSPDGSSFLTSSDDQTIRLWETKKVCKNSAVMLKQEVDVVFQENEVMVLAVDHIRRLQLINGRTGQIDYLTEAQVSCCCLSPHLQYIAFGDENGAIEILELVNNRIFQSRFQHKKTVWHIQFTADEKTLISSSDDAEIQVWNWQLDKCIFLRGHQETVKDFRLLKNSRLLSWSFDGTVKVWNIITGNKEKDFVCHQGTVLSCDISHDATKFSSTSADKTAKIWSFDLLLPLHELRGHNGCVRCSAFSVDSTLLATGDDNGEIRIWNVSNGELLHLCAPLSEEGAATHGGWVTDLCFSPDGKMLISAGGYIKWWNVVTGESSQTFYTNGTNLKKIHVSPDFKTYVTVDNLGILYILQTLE

[9] = biological target: T4, Streptokinase A (Streptococcus pyogenes serotype M1, UniProt P10520); test: S. pyogenes streptokinase expression inhibitors, potency, dose response, plasminogen activation absorbance, OD405 (AID 1914); assay type: functional, Streptococcus pyogenes M1 GAS;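 also: secreted streptokinase activity via plasminogen activation per viability signal from cell pellet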
T4 sequence (P10520 whole entry): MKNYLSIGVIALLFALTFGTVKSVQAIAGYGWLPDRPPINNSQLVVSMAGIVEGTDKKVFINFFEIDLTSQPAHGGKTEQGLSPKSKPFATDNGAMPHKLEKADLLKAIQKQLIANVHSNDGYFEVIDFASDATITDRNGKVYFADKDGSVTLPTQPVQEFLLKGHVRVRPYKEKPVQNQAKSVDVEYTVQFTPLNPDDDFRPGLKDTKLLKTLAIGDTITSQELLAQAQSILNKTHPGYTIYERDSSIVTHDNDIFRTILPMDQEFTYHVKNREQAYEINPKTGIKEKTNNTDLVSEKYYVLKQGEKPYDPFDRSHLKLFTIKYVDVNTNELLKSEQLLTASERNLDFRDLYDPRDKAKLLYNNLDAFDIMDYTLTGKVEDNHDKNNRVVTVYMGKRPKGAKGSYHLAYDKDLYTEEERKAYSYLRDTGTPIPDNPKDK

[10] = biological target: T5, Endoribonuclease toxin MazF (Escherichia coli K-12, UniProt P0AE70); test: MazF toxin RNase activators, dose response, biochemical, fluorescence, single-stranded RNA substrate, uHTS hits (AID 588481); assay type: functional
T5 sequence (P0AE70 whole entry): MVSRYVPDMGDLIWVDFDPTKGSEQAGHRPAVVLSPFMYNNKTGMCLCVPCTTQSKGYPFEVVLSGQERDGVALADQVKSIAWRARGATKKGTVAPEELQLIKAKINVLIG

[11] = biological target: T6, Zinc finger protein mex-5 (Caenorhabditis elegans, UniProt Q9XUB2); test: MEX-5/TCR-2 RNA interaction inhibitors, dose response, biochemical, C. elegans, fluorescence polarization (AID 1960)
T6 sequence (Q9XUB2 whole entry): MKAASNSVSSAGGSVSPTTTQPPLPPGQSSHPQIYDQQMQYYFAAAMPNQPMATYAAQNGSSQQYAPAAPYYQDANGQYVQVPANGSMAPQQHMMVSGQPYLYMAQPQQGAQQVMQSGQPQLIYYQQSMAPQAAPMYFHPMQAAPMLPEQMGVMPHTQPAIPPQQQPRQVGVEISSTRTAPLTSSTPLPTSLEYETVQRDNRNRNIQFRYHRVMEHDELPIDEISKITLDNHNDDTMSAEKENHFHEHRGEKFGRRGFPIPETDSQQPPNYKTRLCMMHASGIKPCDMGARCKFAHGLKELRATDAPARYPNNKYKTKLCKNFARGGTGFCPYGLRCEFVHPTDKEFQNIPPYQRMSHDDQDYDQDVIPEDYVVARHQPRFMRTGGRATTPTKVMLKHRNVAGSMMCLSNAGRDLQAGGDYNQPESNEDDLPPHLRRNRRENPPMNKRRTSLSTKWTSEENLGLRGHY

[12] = biological target: T5, Endoribonuclease toxin MazF; test: fluorescent RNA oligo signal without MazF, dose response, counter-screen for MazEF activator project, biochemical, fluorescence, single-stranded RNase substrate (AID 588502); assay type: functional
[13] = biological target: T7, RNA-binding protein pos-1 (Caenorhabditis elegans, UniProt G5EF15); test: inhibitors of POS-1/mex-3 RNA binding, dose response, biochemical, fluorescence polarization (AID 1964);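 also: purified POS-1 fused to maltose binding protein made in E. coli; potency of compounds blocking POS-1 binding to fluorescent RNA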
T7 sequence (G5EF15 whole entry): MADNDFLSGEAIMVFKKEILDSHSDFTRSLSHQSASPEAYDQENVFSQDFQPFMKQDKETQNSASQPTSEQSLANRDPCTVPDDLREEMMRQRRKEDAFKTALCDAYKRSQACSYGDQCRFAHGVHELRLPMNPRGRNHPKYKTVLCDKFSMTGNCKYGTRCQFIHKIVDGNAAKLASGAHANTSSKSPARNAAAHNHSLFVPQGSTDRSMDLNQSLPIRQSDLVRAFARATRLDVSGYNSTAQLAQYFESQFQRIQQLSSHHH

[14] = biological target: T8, Corticotropin-releasing factor receptor 2/Corticotropin-releasing factor-binding protein (Homo sapiens, UniProt P24387+Q13324); test: activators of CRF receptor 2 with binding protein – uHTS hits, confirmation (AID 602473); assay type: functional; settings: read-out: EC50_Mean
T8 sequence (Q13324 whole entry): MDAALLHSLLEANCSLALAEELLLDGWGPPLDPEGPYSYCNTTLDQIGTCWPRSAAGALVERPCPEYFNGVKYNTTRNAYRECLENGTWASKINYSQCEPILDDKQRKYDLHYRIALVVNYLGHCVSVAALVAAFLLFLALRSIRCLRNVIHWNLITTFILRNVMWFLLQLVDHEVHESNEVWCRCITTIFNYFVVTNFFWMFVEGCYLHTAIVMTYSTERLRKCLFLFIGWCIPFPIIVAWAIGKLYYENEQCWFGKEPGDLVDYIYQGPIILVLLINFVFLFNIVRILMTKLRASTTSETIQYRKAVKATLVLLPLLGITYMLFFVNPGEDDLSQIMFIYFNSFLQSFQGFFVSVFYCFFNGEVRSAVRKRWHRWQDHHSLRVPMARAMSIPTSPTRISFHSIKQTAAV
T8 sequence (P24387 whole entry): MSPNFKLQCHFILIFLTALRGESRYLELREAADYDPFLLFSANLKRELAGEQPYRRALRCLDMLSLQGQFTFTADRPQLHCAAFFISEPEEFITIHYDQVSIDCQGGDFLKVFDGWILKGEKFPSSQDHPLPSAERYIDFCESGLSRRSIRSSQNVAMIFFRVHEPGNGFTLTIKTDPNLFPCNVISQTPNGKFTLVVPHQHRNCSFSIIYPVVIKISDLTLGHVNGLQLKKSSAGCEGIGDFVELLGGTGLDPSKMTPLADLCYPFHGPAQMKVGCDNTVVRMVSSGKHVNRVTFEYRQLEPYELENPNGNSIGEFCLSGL

[15] = biological target: Hepatocyte nuclear factor 4-alpha (Homo sapiens, UniProt P41235); assay type: functional, cell-based;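 also: biochemical luminescence-based dose-response counterscreen measuring inhibition of HNF4 dimerization, run alongside a screen for blockers of ABHD5–perilipin-5 interaction; split luciferase complementation of HNF4 fusion proteins in cell lysate measuring dimerization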
[16] = CEM21 lymphoblast cell cytotoxicity, dose response, cytotoxicity control for viral fusion inhibitor project, CellTiter-Glo luminescence, cherry-picked (AID 652042); assay type: functional, cell-based;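 also: potency for signal decrease meaning cytotoxicity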
[17] = ZM109 Env clade C HIV-1 fusion inhibitors, dose response, HeLa effector, CEM target cells, luciferase, cherry-pick (AID 652058); assay type: functional, cell-based
[18] = system: A549; test: A549 cell toxicity, dose response, cytotoxicity control, plate reader, cherry-pick samples (AID 687028); assay type: functional, cell-based; settings: Homo sapiens
[19] = cells; assay type: functional, cell-based
[20] = cells; assay type: functional, cell-based; remark: listed apart in the source
[21] = biological target: Paired box protein Pax-8 (Homo sapiens, UniProt Q06710); test: inhibitors of PAX8-driven TPO luciferase reporter, dose response, RMG-I cells, cherry-pick (AID 687027); assay type: functional, cell-based;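 also: luciferase reporter driven by Pax8 target thyroperoxidase promoter measured by SteadyGlo luminescence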
[22] = P. falciparum Dd2 growth inhibitors, dose response, SYBR Green, dry powder samples, set 9 (AID 1159568); assay type: functional, cell-based
[23] = cytotoxicity in OVCAR8 ovarian cancer cells, dose response, PAX8 project, cell-based, plate reader, dry powder samples (AID 743197); assay type: functional; settings: OVCAR-8

Galanin receptor type 3, sequence (O60755 whole entry): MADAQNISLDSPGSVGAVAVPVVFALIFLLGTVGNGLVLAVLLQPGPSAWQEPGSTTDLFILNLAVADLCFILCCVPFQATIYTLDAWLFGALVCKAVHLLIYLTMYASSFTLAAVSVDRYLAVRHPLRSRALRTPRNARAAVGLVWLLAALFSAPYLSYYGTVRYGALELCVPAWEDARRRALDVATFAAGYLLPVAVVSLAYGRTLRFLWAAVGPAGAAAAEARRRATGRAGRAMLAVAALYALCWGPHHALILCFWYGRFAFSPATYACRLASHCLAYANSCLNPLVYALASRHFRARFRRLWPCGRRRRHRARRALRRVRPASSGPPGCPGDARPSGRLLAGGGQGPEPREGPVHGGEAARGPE
Hepatocyte nuclear factor 4-alpha, sequence (P41235 whole entry, the tested form may be a part): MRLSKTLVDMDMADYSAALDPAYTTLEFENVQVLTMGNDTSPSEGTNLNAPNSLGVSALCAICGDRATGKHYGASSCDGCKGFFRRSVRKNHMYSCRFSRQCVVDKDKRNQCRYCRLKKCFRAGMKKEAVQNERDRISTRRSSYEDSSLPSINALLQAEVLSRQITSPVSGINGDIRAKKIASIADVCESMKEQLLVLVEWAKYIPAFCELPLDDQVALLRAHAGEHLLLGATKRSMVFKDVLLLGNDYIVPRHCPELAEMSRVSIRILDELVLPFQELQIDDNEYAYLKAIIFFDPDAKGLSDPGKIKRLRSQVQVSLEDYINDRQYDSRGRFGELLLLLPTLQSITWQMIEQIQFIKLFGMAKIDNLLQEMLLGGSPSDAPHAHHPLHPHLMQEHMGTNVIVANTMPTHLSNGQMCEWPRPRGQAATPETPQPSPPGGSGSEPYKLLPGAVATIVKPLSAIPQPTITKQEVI
Beta Lactamase, sequence (Q932Y6 whole entry): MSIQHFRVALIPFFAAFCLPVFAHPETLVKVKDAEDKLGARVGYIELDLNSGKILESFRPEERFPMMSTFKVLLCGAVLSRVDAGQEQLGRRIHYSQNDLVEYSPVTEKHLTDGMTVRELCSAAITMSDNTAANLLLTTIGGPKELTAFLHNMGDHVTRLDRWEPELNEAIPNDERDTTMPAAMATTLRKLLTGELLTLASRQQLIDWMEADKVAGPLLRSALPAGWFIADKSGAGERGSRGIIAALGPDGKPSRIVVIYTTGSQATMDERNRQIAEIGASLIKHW
Paired box protein Pax-8, sequence (Q06710 whole entry): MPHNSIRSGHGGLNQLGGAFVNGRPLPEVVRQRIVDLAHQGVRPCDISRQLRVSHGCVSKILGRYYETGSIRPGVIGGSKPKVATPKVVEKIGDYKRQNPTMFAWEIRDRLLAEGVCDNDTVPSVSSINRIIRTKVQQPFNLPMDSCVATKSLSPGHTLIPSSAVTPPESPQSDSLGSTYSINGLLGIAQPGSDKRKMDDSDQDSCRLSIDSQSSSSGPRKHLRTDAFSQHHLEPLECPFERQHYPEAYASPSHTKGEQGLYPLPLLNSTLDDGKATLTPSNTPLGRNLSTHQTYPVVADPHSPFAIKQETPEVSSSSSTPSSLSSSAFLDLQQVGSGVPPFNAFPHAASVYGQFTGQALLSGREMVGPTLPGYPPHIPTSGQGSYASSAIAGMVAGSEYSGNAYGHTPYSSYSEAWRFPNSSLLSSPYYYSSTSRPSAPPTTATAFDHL

## CCC(CC)C(=O)Nc1ccc([N+](=O)[O-])cn1
[1]
  IC50: > 29.9 µM (inactive)
[2]
  EC50: > 29.9 µM (inactive)

## N#C/C(=C/c1ccc(-c2ccc(S(N)(=O)=O)cc2)o1)c1nc2ccccc2s1
[3]
  IC50: 22.1 µM (inactive)
[4]
  IC50: 5.09 µM (active)

## Cc1cccc(N2C(=O)Cc3ccccc3C2=O)c1
[5]
  IC50: 5.17 µM (active)
[6]
  IC50: > 100 µM (inactive)
[7]
  AC50: 22.7 µM (active)

## CCCCC[n+]1ccn(C2=C([N-]S(=O)(=O)c3ccc(Br)cc3)C(=O)c3ccccc3C2=O)c1
[8]
  IC50: 9.66 µM (active)
[9]
  EC50: > 150 µM (not active)

## COc1ccc(N/C=C2/C(=O)N(c3cccc(C)n3)C(=O)c3ccccc32)c(OC)c1
[10]
  EC50: > 99 µM (inactive)
[11]
  EC50: 55.4 µM (inconclusive)
[12]
  EC50: 14.5 µM (active)
[13]
  EC50: > 300 µM (not active)
[14]
  EC50: 8.64 µM (active)

## CC(C)(C)CN1CCN(Cc2nc(-c3ccc(F)cc3)cs2)CC1CCO (configuration not stated)
[1]
  IC50: 2.83 µM (active)
[2]
  EC50: > 29.9 µM (inactive)

## N#Cc1ccccc1OCc1cn(CC(=O)c2ccc(O)cc2)nn1
[15]
  IC50: 6.36 µM (active)

## C[C@@H]1CN([C@H](C)CO)S(=O)(=O)c2ccc(C#Cc3cccc(F)c3)cc2O[C@@H]1CN(C)C(=O)CN1CCOCC1
[16]
  AC50: 40.3 µM (active)
[17]
  AC50: 0.899 µM (active)

## Cc1cccnc1C(NC(=O)C1CCN(CCCc2ccccc2)CC1)c1ccc(Cl)cc1 (configuration not stated)
[18]
  AC50: 27.9 µM (active)

## O=C(O)C1C2CCC(C2)C1C(=O)NCCc1ccccc1 (configuration not stated)
[19]
  EC50: > 29.9 µM (inactive)
[20]
  IC50: > 29.9 µM (inactive)

## CC(C)(C)NC(=O)C(c1ccc(C#N)cc1)n1c(=O)c(-c2ccco2)nc2ccccc21 (configuration not stated)
[15]
  IC50: 1.47 µM (active)

## CS(=O)(=O)N1C[C@@H]2N[C@H](C1)[C@@H]2c1ccc(-c2ccccc2)cc1
[21]
  AC50: 4.42 µM (active)
[18]
  AC50: 17.7 µM (active)
[22]
  AC50: 9.14 µM (active)
[23]
  AC50: > 60 µM (inactive)
